Data set [1] deals with Liver microsomes. The experiment in a line: Intrinsic clearance in Sprague-Dawley rat liver microsomes after 60 mins by LC-MS/MS analysis. As to conditions: 1 h. Type of data set: ADME, Microsome.
Data set [2] is described as follows: Half life in Wistar rat at 50 mg/kg, po administered as single dose by LC-MS/MS analysis. Type of data set: ADME, organism-based. More on the design: dose 50 mg/kg, route oral. As to conditions: in vivo.
In data set [3] the test system is Rattus norvegicus. Briefly: Tlast in Wistar rat at 50 mg/kg, po administered as single dose by LC-MS/MS analysis. It counts as ADME, organism-based. The arrangement: dose 50 mg/kg, route oral. As to conditions: in vivo.
Data set [4] in a line: AUC (0 to t) in Wistar rat at 50 mg/kg, po administered as single dose by LC-MS/MS analysis. It counts as ADME, organism-based. More on the design: dose 50 mg/kg, route oral. As to conditions: plasma.
A short description of data set [5]: Cmax in Wistar rat at 50 mg/kg, po administered as single dose by LC-MS/MS analysis. It counts as ADME, organism-based. As to conditions: in vivo. More on the design: dose 50 mg/kg, route oral.
Data set [6] in a line: Apparent permeability across human Caco2 cells after 180 mins by LC-MS/MS analysis. Type of data set: ADME, cell-based. As to conditions: Caco-2.
Data set [7] concerns the target Estrogen receptor beta (Homo sapiens) (UniProt Q92731). The experiment in a line: Displacement of [3H]E2 from human recombinant ERbeta by liquid scintillation counting relative to estradiol. On the technique in general: Loss of bound radioactivity is the signal in a displacement assay; it reports binding, not function.
Data set [8] is filed under the species Homo sapiens. The experiment in a line: Selectivity ratio of IC50 for human placental 17beta-HSD2 to IC50 for human placental 17beta-HSD1.
For data set [9], the target named is T1, Estrogen receptor (Homo sapiens) (UniProt P03372).
T1 sequence (whole entry): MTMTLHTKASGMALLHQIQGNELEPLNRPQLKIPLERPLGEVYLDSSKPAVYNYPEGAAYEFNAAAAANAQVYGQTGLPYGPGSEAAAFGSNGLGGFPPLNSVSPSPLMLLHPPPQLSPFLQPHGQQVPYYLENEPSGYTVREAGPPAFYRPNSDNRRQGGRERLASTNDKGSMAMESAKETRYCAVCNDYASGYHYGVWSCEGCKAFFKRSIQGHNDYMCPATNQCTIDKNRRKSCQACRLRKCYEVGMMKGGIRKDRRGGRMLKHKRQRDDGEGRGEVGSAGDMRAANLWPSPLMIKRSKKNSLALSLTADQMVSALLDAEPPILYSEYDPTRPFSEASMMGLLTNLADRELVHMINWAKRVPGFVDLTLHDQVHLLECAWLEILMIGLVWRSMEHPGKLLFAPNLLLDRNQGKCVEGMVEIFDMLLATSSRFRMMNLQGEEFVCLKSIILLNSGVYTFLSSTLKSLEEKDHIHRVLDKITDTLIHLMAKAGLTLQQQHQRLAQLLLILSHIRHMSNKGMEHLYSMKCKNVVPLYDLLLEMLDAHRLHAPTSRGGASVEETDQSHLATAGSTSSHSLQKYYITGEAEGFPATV
The experiment in a line: Displacement of [3H]E2 from human recombinant ERalpha by liquid scintillation counting relative to estradiol.

Data set [10] has as its target T2, 17-beta-hydroxysteroid dehydrogenase type 1 (Homo sapiens, UniProt P14061).
T2 sequence (P14061 whole entry): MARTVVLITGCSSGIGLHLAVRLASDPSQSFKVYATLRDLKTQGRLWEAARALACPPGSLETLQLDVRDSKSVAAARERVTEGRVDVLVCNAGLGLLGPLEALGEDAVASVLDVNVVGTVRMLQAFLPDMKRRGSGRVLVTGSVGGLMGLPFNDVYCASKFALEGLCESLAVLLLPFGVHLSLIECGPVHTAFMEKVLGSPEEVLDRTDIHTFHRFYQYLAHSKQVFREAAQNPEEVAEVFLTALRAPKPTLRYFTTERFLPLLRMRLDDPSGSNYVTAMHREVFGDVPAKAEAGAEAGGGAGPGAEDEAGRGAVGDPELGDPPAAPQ
Briefly: Displacement of [3H]E1 from human placental 17beta-HSD1 after 10 mins by fluid scintillation counting.

The target in data set [11] is T3, 17-beta-hydroxysteroid dehydrogenase type 2 (Homo sapiens, UniProt P37059).
T3 sequence (P37059 whole entry): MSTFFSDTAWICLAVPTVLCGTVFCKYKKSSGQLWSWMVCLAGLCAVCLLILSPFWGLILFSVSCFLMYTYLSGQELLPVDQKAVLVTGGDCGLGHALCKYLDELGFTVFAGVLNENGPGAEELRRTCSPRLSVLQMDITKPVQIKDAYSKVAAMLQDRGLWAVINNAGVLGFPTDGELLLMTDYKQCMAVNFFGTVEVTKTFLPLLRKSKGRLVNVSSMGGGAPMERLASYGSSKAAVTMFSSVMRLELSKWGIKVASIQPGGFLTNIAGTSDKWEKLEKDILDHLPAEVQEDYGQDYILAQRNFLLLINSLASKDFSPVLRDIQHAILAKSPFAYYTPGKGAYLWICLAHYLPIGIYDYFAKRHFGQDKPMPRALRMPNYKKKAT
The experiment in a line: Displacement of [3H]E2 from human placental 17beta-HSD2 after 10 mins by fluid scintillation counting.

Data set [12] addresses T4, 17-beta-hydroxysteroid dehydrogenase type 2 (Homo sapiens) (UniProt P37059).
T4 sequence (whole entry): T3 sequence (P37059 whole entry)
Briefly: Inhibition of [3H]E2 binding to human recombinant 17beta-HSD2 expressed in baculovirus-infected Sf9 cells at 100 nM after 10 mins by fluid scintillation counting.

The target of data set [13] is T5, Cytochrome P450 1A2 (Homo sapiens, UniProt P05177).
T5 sequence (P05177 whole entry): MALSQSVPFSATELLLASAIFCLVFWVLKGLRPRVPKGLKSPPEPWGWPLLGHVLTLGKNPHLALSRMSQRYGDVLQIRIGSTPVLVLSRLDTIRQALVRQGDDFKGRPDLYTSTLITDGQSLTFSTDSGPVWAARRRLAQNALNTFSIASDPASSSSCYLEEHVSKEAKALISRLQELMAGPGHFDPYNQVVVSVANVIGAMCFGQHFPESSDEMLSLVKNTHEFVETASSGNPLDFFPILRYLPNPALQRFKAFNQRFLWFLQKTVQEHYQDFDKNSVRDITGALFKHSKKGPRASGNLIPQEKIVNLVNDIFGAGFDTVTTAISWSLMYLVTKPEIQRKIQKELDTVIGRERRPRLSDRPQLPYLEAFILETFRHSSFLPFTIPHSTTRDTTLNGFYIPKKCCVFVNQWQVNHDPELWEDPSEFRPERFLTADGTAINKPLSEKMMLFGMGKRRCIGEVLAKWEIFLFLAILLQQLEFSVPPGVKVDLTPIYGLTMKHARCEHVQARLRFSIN
The experiment in a line: Inhibition of human CYP1A2. It counts as ADME.

Data set [14] deals with T6, 17-beta-hydroxysteroid dehydrogenase type 1 (Homo sapiens) (UniProt P14061).
T6 sequence (whole entry): T2 sequence (P14061 whole entry)
Briefly: Inhibition of [3H]E1 binding to human recombinant 17beta-HSD1 expressed in baculovirus-infected Sf9 cells at 100 nM after 10 mins by fluid scintillation counting.

Data set [15] can be described thus: Tmax in Wistar rat at 50 mg/kg, po administered as single dose by LC-MS/MS analysis. Particulars: in vivo. More on the design: dose 50 mg/kg, route oral. Type of data set: ADME, organism-based.
Data set [16] addresses T4, 17-beta-hydroxysteroid dehydrogenase type 2 (Homo sapiens). Briefly: Inhibition of [3H]E2 binding to human recombinant 17beta-HSD2 expressed in baculovirus-infected Sf9 cells at 1 uM after 10 mins by fluid scintillation counting.
The test system of data set [17] is Rattus norvegicus. Briefly: Clast in Wistar rat at 50 mg/kg, po administered as single dose by LC-MS/MS analysis. Type of data set: ADME, organism-based. More on the design: dose 50 mg/kg, route oral. As to conditions: in vivo.
Data set [18] in a line: Half life in Sprague-Dawley rat liver microsomes by LC-MS/MS analysis. Type of data set: ADME, Microsome.
Data set [19] concerns the target T6, 17-beta-hydroxysteroid dehydrogenase type 1 (Homo sapiens). Briefly: Inhibition of [3H]E1 binding to human recombinant 17beta-HSD1 expressed in baculovirus-infected Sf9 cells at 1 uM after 10 mins by fluid scintillation counting.
In data set [20] the target is T2, 17-beta-hydroxysteroid dehydrogenase type 1. The experiment in a line: Displacement of [3H]E1 from 17beta-HSD1 in human T47D cells after 10 mins by fluid scintillation counting. It counts as cell-based.
Data set [21] relates to Liver microsomes. Briefly: Metabolic stability in human liver microsomes up to 45 mins by LC-MS/MS analysis. It counts as ADME, Microsome. As to conditions: 0.75 h. On the technique in general: Microsomes from liver hold many membrane-bound enzymes, among them those of drug oxidation.
For data set [22], the target named is Cytochrome P450 2C19 (Homo sapiens, UniProt P33261). Briefly: Inhibition of human CYP2C19. It counts as ADME.
Cytochrome P450 2C19, sequence (P33261 whole entry): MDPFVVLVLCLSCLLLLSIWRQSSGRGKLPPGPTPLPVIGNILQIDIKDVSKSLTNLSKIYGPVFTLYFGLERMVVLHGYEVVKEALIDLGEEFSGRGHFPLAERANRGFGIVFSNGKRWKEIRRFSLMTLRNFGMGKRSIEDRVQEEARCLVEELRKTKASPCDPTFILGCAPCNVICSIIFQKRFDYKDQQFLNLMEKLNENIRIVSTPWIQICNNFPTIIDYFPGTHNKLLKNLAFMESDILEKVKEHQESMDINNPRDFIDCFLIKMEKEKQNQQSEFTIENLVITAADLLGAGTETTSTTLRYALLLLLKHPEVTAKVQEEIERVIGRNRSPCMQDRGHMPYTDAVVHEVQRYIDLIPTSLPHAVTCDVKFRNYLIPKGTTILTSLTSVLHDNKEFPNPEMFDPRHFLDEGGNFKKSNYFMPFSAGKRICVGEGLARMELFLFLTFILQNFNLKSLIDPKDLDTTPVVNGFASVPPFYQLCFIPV
Data set [23] concerns the target Cytochrome P450 2C9 (Homo sapiens, UniProt P11712). Briefly: Inhibition of human CYP2C9. It counts as ADME.
Data set [24] addresses Cytochrome P450 2D6 (Homo sapiens, UniProt P10635). Briefly: Inhibition of human CYP2D6. It counts as ADME.
For data set [25], the target named is Cytochrome P450 3A4 (Homo sapiens, UniProt P08684). Briefly: Inhibition of human CYP3A4. It counts as ADME.
Cytochrome P450 3A4, sequence (P08684 whole entry): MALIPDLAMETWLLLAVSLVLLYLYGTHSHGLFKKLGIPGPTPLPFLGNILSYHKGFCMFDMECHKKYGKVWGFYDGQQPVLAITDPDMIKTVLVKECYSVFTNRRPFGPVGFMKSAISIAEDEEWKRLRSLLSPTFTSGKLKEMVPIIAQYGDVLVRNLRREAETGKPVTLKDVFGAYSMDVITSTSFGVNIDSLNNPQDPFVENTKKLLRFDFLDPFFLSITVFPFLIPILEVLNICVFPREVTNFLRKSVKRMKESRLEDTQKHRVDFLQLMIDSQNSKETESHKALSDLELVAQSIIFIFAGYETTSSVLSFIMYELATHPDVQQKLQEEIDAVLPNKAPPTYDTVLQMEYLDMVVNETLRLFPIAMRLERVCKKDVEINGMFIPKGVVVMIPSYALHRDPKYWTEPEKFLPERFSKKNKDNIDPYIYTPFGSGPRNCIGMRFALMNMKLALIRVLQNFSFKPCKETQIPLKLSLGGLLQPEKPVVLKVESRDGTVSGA
Data set [26] has as its target T7, Cytochrome P450 2B6 (Homo sapiens, UniProt P20813).
T7 sequence (P20813 whole entry): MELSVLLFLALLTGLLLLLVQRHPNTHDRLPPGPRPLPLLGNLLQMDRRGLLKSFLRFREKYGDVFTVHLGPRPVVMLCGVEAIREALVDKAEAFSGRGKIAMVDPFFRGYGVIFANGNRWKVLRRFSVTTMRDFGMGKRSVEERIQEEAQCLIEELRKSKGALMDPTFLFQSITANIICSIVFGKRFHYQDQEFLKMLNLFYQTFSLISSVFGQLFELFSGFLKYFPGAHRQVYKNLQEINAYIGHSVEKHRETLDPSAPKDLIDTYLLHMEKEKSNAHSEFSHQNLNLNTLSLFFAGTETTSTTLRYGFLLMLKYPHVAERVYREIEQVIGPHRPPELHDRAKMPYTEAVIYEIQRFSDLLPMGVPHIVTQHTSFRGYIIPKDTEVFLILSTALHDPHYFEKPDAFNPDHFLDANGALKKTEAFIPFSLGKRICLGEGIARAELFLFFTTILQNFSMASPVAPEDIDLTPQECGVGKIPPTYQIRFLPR
The experiment in a line: Inhibition of human CYP2B6. It counts as ADME.

Estrogen receptor beta (Homo sapiens), sequence (Q92731 whole entry): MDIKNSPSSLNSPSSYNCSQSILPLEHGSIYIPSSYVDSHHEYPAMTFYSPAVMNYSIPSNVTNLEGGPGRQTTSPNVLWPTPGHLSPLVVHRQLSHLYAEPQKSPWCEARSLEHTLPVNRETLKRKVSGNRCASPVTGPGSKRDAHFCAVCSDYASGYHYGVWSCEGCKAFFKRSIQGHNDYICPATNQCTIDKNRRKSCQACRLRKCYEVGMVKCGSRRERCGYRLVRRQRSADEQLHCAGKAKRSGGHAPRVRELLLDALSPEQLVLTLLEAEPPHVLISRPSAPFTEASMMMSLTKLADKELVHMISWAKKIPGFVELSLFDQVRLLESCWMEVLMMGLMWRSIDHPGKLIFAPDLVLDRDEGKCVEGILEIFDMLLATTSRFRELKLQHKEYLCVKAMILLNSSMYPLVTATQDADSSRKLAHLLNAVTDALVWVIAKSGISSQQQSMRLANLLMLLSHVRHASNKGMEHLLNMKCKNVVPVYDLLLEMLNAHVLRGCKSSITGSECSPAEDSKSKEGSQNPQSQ
Cytochrome P450 2D6, sequence (P10635 whole entry): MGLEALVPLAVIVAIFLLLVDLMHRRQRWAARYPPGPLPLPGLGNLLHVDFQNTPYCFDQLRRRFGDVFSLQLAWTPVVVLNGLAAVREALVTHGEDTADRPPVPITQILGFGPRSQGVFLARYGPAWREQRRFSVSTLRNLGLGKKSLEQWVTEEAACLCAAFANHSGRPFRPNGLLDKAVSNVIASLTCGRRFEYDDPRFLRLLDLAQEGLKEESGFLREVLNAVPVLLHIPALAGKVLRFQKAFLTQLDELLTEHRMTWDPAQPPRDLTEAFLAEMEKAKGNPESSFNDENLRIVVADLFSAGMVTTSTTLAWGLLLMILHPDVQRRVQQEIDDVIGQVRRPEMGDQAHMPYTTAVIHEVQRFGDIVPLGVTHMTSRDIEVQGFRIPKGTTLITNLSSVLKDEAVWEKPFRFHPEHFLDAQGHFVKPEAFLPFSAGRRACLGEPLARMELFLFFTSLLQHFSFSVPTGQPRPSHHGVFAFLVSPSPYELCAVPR
Cytochrome P450 2C9, sequence (P11712 whole entry): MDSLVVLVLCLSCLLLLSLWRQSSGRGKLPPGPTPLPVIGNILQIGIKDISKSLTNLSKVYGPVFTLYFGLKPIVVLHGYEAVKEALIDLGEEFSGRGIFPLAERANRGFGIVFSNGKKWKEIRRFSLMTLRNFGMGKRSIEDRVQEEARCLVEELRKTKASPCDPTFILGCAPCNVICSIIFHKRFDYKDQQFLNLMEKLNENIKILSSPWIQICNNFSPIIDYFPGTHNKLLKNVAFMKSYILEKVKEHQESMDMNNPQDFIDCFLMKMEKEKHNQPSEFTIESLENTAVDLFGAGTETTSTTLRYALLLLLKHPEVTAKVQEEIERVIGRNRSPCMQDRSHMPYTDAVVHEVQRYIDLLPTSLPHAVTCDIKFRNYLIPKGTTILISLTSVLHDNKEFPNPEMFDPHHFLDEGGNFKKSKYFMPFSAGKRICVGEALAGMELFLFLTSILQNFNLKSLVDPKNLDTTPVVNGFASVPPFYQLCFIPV

Usually half-life stands for how long it takes for the measured level to halve. Low values mean fast loss, high ones slow loss. In general, AUC(0-t) refers to the area under the concentration-time curve up to a stated or last time point. A low value points to less exposure. As usually defined, the Cmax is the peak of the concentration-time curve. By Papp is commonly meant the rate of passage across a membrane or cell layer, normalised by area and donor concentration. The term IC50 denotes the concentration that gives 50% inhibition. Lower therefore signals greater potency in that assay. By inhibition is commonly meant the drop in the measured response relative to a control, in per cent. The Tmax is the time at which the peak concentration occurs. Consider `Oc1cccc(-c2ccc3c(-c4cccnc4)c(O)ccc3c2)c1`, for which the CL in data set [1] worked out at 340 µL/min. Also, the half-life in data set [2] was 1.5 h; in data set [18], 0.233 h. This compound registered a tz in data set [3] of 8 h. In [4], this compound gave an AUC(0-t) of 203 ng·h/mL. Further, the concentration in data set [5] peaked (Cmax) at 16 ng/mL. In addition, the Papp at 3 h in [6] amounted to 14 ×10⁻⁶ cm/s. Besides, the RBA in data set [7] and in data set [9] was 0.01% throughout. Besides, in [8], the Ratio IC50 is 45. Further, the IC50 in data set [10] worked out at 26 nM; in [11], 1160 nM; in data set [13], 10 nM; in data set [20], 165 nM. Also, the inhibition in data set [12] was found to be 66%; in data set [14] it was 87%; in data set [16], 90%; in data set [19], 92%. For the same compound, the Tmax in data set [15] stood at 2 h. The compound also returned a Cz in data set [17] of 18 ng/mL.
With `CS(=O)(=O)Nc1cccc(-c2c(O)ccc3cc(-c4cccc(O)c4)ccc23)c1`, the Papp at 3 h in data set [6] is 19 ×10⁻⁶ cm/s. Moreover, the RBA is less than 0.01% in [7] and 0.01% in [9]. In addition, the Stability entry in [21] was “Stable”. In addition, the Ratio IC50 in data set [8] worked out at 27. In addition, the IC50 came to 15 nM in [10] and 71 nM in data set [20]. Moreover, the inhibition in data set [12] is 31%; in data set [14] it was 88%; in [16], 71%; in [19] it was 91%.
In turn, `Nc1cccc(-c2c(O)ccc3cc(-c4cccc(O)c4)ccc23)c1` displayed a CL in data set [1] of 93 µL/min. Moreover, the figures for the half-life in [2] and in data set [18] were 1.6 h and 0.833 h, respectively. Further, the IC50 in data set [22] came out at 680 nM; in data set [23], 1250 nM; in data set [24], 40000 nM; in data set [10], 53 nM; in data set [25], 1070 nM; in data set [13], 10500 nM. The IC50 in data set [26] turned out to be 10400 nM. This compound also gave a tz in [3] of 8 h. Moreover, the AUC(0-t) in data set [4] worked out at 337 ng·h/mL. This compound came in with a Cmax in data set [5] of 44 ng/mL. Moreover, in data set [6], the Papp at 3 h worked out at 16 ×10⁻⁶ cm/s. Also, the RBA is less than 0.01% in data set [7] and 0.01% in [9]. For the same compound, the inhibition was less than 10% in [12], 74% in [14], 39% in data set [16] and 87% in data set [19]. For the same compound, in data set [15], the Tmax came to 2 h. In [17], this compound had a Cz of 14 ng/mL.

Values taken from ChEMBL document CHEMBL1649421, “New drug-like hydroxyphenylnaphthol steroidomimetics as potent and selective 17β-hydroxysteroid dehydrogenase type 1 inhibitors for the treatment of estrogen-dependent diseases” (J Med Chem, 2011).
